Source: patent publication US8614290B2, “Cancer imaging and treatment” (Technische Universitat Munchen, priority 2007, dated 2013)
Numbered stars: 1 amine (or outer) side, 2 acyl side, 3 side chain; on linkers, the order of the positions; unused ones are H or OH. Bridge positions count the residues as written; N and C are the ends. Square brackets hold non-standard residues; d marks the D form. Peptide text beside a SMILES is read from it. I, II: the chains in the order shown. * marks the point of attachment. C16 diacid = O=C(O)CCCCCCCCCCCCCCC(=O)*; Sebacoyl = O=C(CCCCCCCCC(=O)[*:2])[*:1]; 2Nal = N[C@@H](Cc1ccc2ccccc2c1)C(=O)O; Suberoyl = O=C(CCCCCCC(=O)[*:2])[*:1]; Adipoyl = O=C(CCCCC(=O)[*:2])[*:1]; Glutaryl = O=C(CCCC(=O)[*:2])[*:1]; dNMeOrn = CN[C@H](CCCN)C(=O)O; Suc = O=C(CCC(=O)[*:2])[*:1]

Molecular target: human CXCR4 (Homo sapiens, UniProt P61073)
Sequence (P61073 whole entry): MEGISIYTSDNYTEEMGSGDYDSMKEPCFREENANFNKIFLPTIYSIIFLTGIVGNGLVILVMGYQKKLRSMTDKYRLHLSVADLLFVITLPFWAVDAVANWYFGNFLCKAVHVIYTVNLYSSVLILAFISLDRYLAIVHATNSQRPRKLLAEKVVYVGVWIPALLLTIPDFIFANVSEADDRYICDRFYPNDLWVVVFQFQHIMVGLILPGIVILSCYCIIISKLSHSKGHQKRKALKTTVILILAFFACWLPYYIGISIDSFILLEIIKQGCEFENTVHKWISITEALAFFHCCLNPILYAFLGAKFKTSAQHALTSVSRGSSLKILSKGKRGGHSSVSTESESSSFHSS
Test: Competitive receptor binding assay on Jurkat cells with 125I-CPCR4 as tracer
Design: Jurkat cells that endogenously express the CXCR4 receptor; endogenous in cells; host or cells: Jurkat cells
Conditions: Table 1, Nα-monomethylated cyclic pentapeptides; read-out: IC50
Protocol: For receptor binding assays cells were resuspended in PBS/0.2% BSA. A total of 200 μl of the suspension containing 400,000 Jurkat cells were incubated with 25 μl of the tracer solution (containing 3.1 kBq, approx. 0.1 nM) and 25 μl of the diluent or the competitor at different concentrations. […] After shaking for 2 h at room temperature, the incubation was terminated by centrifugation at 1300 rpm for 5 min. Cell pellets were washed once with cold PBS followed by a second centrifugation step. Cell bound radioactivity was determined by using a gamma counter. Experiments were repeated 2-3 times in triplicates. IC50 values of the compounds were calculated by nonlinear regression using GraphPad Prism (GraphPad Prism 4.0 Software, Inc., San Diego, Calif., USA). Each data point is the average of three determinations.

| Structure (SMILES) | IC50 |
| --- | --- |
| CN1C(=O)[C@H](CCCNC(=N)N)NC(=O)[C@@H](Cc2ccc(O)cc2)NC(=O)CNC(=O)[C@H](Cc2ccc3ccccc3c2)NC(=O)[C@@H]1CCCNC(=N)N [OD3, cyc[D-Tyr-Arg-(Me)Arg-Nal-Gly]] | 31 nM |
| CN1C(=O)[C@@H](Cc2ccc(O)cc2)NC(=O)CNC(=O)[C@H](Cc2ccc3ccccc3c2)NC(=O)[C@H](CCCNC(=N)N)NC(=O)[C@@H]1CCCNC(=N)N [OD1, cyc[D-Tyr-(Me)Arg-Arg-Nal-Gly]] | 23 nM |

Same assay, conditions: Table 4, Orn-Nδ and/or Orn-Nα-modified pentapeptides; read-out: IC50

| Structure (SMILES) | IC50 |
| --- | --- |
| N=C(N)NCCC[C@@H]1NC(=O)[C@H](CCCNCc2cccc3ccccc23)NC(=O)[C@@H](Cc2ccc(O)cc2)NC(=O)CNC(=O)[C@H](Cc2ccc3ccccc3c2)NC1=O [cyc[D-Tyr-Orn(N1)-Arg-Nal-Gly]] (HELM PEPTIDE1{[dY].[O=C([C@H](CCCNCc1cccc2ccccc12)N[*:1])[*:2]].R.[O=C([C@H](Cc1ccc2ccccc2c1)N[*:1])[*:2]].G}$PEPTIDE1,PEPTIDE1,1:R1-5:R2$$$V2.0) | 40 ± 3 nM |
| N=C(N)NCCC[C@@H]1NC(=O)[C@H](CCCN(Cc2ccccc2)C(=O)c2ccc(F)cc2)NC(=O)[C@@H](Cc2ccc(O)cc2)NC(=O)CNC(=O)[C@H](Cc2ccc3ccccc3c2)NC1=O [cyc[D-Tyr-Orn(Bz,FB)-Arg-Nal-Gly]] (HELM PEPTIDE1{[O=C([C@H](Cc1ccc2ccccc2c1)N[*:1])[*:2]].G.[dY].[O=C(c1ccc(F)cc1)N(CCC[C@H](N[*:1])C(=O)[*:2])Cc1ccccc1].R}$PEPTIDE1,PEPTIDE1,1:R1-5:R2$$$V2.0) | 100 nM |
| N=C(N)NCCC[C@@H]1NC(=O)[C@H](CCCNCc2ccc3ccccc3c2)NC(=O)[C@@H](Cc2ccc(O)cc2)NC(=O)CNC(=O)[C@H](Cc2ccc3ccccc3c2)NC1=O [cyc[D-Tyr-Orn(N2)-Arg-Nal-Gly]] (HELM PEPTIDE1{[dY].[O=C([C@H](CCCNCc1ccc2ccccc2c1)N[*:1])[*:2]].R.[O=C([C@H](Cc1ccc2ccccc2c1)N[*:1])[*:2]].G}$PEPTIDE1,PEPTIDE1,1:R1-5:R2$$$V2.0) | 49 ± 1 nM |

Same assay, conditions: Table 5, D-Orn derivatives, His, Phe; read-out: IC50

| Structure (SMILES) | IC50 |
| --- | --- |
| N=C(N)NCCC[C@@H]1NC(=O)[C@H](Cc2c[nH]cn2)NC(=O)[C@@H](Cc2ccc(O)cc2)NC(=O)CNC(=O)[C@H](Cc2ccc3ccccc3c2)NC1=O [cyc[D-Tyr-His-Arg-Nal-Gly]] (HELM PEPTIDE1{[O=C([C@H](Cc1ccc2ccccc2c1)N[*:1])[*:2]].G.[dY].H.R}$PEPTIDE1,PEPTIDE1,1:R1-5:R2$$$V2.0) | 30 nM |
| CN(CCC[C@@H]1C(=O)N[C@@H](CCCNC(=N)N)C(=O)N[C@@H](Cc2ccc3ccccc3c2)C(=O)NCC(=O)N[C@H](Cc2ccc(O)cc2)C(=O)N1C)C(=O)c1ccc(F)cc1 [cyc[D-Tyr-(Me)D-Orn(Me,FB)-Arg-Nal-Gly]] (HELM PEPTIDE1{[O=C([C@H](Cc1ccc2ccccc2c1)N[*:1])[*:2]].G.[dY].[CN(CCC[C@H](C(=O)[*:2])N(C)[*:1])C(=O)c1ccc(F)cc1].R}$PEPTIDE1,PEPTIDE1,1:R1-5:R2$$$V2.0) | 59 nM |

Same assay, conditions: Table 10, dimers and monomers; read-out: IC50

| Structure (SMILES) | IC50 |
| --- | --- |
| CN1C(=O)[C@@H](Cc2ccc(O)cc2)NC(=O)CNC(=O)[C@H](Cc2ccc3ccccc3c2)NC(=O)[C@H](CCCNC(=N)N)NC(=O)[C@H]1CCCNC(=O)C[C@H](NC(=O)CCCCCNC(=O)CN1CCN(CC(=O)O)CCN(CC(=O)O)CCN(CC(=O)O)CC1)C(=O)NCCC[C@@H]1C(=O)N[C@@H](CCCNC(=N)N)C(=O)N[C@@H](Cc2ccc3ccccc3c2)C(=O)NCC(=O)N[C@H](Cc2ccc(O)cc2)C(=O)N1C [NMe-D-Orn InDOTAAhxAsp] | 37.9 nM |
| N=C(N)NCCC[C@@H]1NC(=O)[C@H](CCCNC(=O)CON=CCCCC=NOCC(=O)NCCC[C@@H]2NC(=O)[C@@H](Cc3ccc(O)cc3)NC(=O)CNC(=O)[C@H](Cc3ccc4ccccc4c3)NC(=O)[C@H](CCCNC(=N)N)NC2=O)NC(=O)[C@@H](Cc2ccc(O)cc2)NC(=O)CNC(=O)[C@H](Cc2ccc3ccccc3c2)NC1=O [Code A22, glutaric aldehyde-(cyclo[D-Tyr-Orn(amineoxyacetyl)-Arg-2-Nal-Gly])2] | 57.9 nM |
| CN1C(=O)[C@@H](Cc2ccc(O)cc2)NC(=O)CNC(=O)[C@H](Cc2ccc3ccccc3c2)NC(=O)[C@H](CCCN=C(N)N)NC(=O)[C@H]1CCCNC(=O)CNC(=O)CC(=O)NCC(=O)NCCC[C@@H]1C(=O)N[C@@H](CCCN=C(N)N)C(=O)N[C@@H](Cc2ccc3ccccc3c2)C(=O)NCC(=O)N[C@H](Cc2ccc(O)cc2)C(=O)N1C [NMe-D-Orn + Gly n = 1] | 5.48 nM |
| CN1C(=O)[C@@H](Cc2ccc(O)cc2)NC(=O)CNC(=O)[C@H](Cc2ccc3ccccc3c2)NC(=O)[C@H](CCCNC(=N)N)NC(=O)[C@H]1CCCNC(=O)CCC(=O)NCCC[C@@H]1C(=O)N[C@@H](CCCNC(=N)N)C(=O)N[C@@H](Cc2ccc3ccccc3c2)C(=O)NCC(=O)N[C@H](Cc2ccc(O)cc2)C(=O)N1C [NMe-D-Orn n = 2] (I: cyclo([2Nal]G[dY][dNMeOrn]R) / II: cyclo([2Nal]G[dY][dNMeOrn]R); linker I:4-II:4 via Suc) | 6.61 nM |
| CN1C(=O)[C@@H](Cc2ccc(O)cc2)NC(=O)CNC(=O)[C@H](Cc2ccc3ccccc3c2)NC(=O)[C@H](CCCN=C(N)N)NC(=O)[C@H]1CCCNC(=O)CCCCC(=O)NCCC[C@@H]1C(=O)N[C@@H](CCCN=C(N)N)C(=O)N[C@@H](Cc2ccc3ccccc3c2)C(=O)NCC(=O)N[C@H](Cc2ccc(O)cc2)C(=O)N1C [NMe-D-Orn n = 4] (I: cyclo([2Nal]G[dY][dNMeOrn]R) / II: cyclo([2Nal]G[dY][dNMeOrn]R); linker I:4-II:4 via Adipoyl) | 3.65 nM |
| CN1C(=O)[C@@H](Cc2ccc(O)cc2)NC(=O)CNC(=O)[C@H](Cc2ccc3ccccc3c2)NC(=O)[C@H](CCCNC(=N)N)NC(=O)[C@H]1CCCNC(=O)CCCCCCCCCCCCCCC(=O)NCCC[C@@H]1C(=O)N[C@@H](CCCNC(=N)N)C(=O)N[C@@H](Cc2ccc3ccccc3c2)C(=O)NCC(=O)N[C@H](Cc2ccc(O)cc2)C(=O)N1C [NMe-D-Orn n = 14] (I: cyclo([2Nal]G[dY][dNMeOrn]R) / II: cyclo([2Nal]G[dY][dNMeOrn]R); linker I:4-II:4 via C16 diacid (inferred); ring closure inferred) | 33.5 nM |
| CN1C(=O)[C@@H](Cc2ccc(O)cc2)NC(=O)CNC(=O)[C@H](Cc2ccc3ccccc3c2)NC(=O)[C@H](CCCN=C(N)N)NC(=O)[C@H]1CCCNC(=O)CNC(=O)CC(CC(=O)NCC(=O)NCCC[C@@H]1C(=O)N[C@@H](CCCN=C(N)N)C(=O)N[C@@H](Cc2ccc3ccccc3c2)C(=O)NCC(=O)N[C@H](Cc2ccc(O)cc2)C(=O)N1C)NC(=O)CCCCCNC(=O)CN1CCN(CC(=O)O)CCN(CC(=O)O)CCN(CC(=O)O)CC1 (single isomer, unassigned) [NMe-D-Orn + Gly DOTAAhxbetaAsp] | 12.3 nM |
| CN1C(=O)[C@@H](Cc2ccc(O)cc2)NC(=O)CNC(=O)[C@H](Cc2ccc3ccccc3c2)NC(=O)[C@H](CCCNC(=N)N)NC(=O)[C@H]1CCCNC(=O)CNC(=O)C[C@H](NC(=O)CCCCCNC(=O)CN1CCN(CC(=O)O)CCN(CC(=O)O)CCN(CC(=O)O)CC1)C(=O)NCC(=O)NCCC[C@@H]1C(=O)N[C@@H](CCCNC(=N)N)C(=O)N[C@@H](Cc2ccc3ccccc3c2)C(=O)NCC(=O)N[C@H](Cc2ccc(O)cc2)C(=O)N1C [NMe-D-Orn + Gly DOTAAhxAsp] | 38 nM |
| CN1C(=O)[C@@H](Cc2ccc(O)cc2)NC(=O)CNC(=O)[C@H](Cc2ccc3ccccc3c2)NC(=O)[C@H](CCCN=C(N)N)NC(=O)[C@H]1CCCNC(=O)CCCCCCCCC(=O)NCCC[C@@H]1C(=O)N[C@@H](CCCN=C(N)N)C(=O)N[C@@H](Cc2ccc3ccccc3c2)C(=O)NCC(=O)N[C@H](Cc2ccc(O)cc2)C(=O)N1C [NMe-D-Orn n = 8] (I: cyclo([2Nal]G[dY][dNMeOrn]R) / II: cyclo([2Nal]G[dY][dNMeOrn]R); linker I:4-II:4 via Sebacoyl) | 2.26 nM |

Same assay, conditions: read-out: IC50 (affinity)

| Structure (SMILES) | IC50 |
| --- | --- |
| CN1C(=O)[C@@H](Cc2ccc(O)cc2)NC(=O)CNC(=O)[C@H](Cc2ccc3ccccc3c2)NC(=O)[C@H](CCCNC(=N)N)NC(=O)[C@H]1CCCNC(=O)CCCCCCCCCCCC(=O)NCCC[C@@H]1C(=O)N[C@@H](CCCNC(=N)N)C(=O)N[C@@H](Cc2ccc3ccccc3c2)C(=O)NCC(=O)N[C@H](Cc2ccc(O)cc2)C(=O)N1C [NMe-D-Orn n = 11] | 11.1 ± 3.4 nM |
| N=C(N)NCCC[C@@H]1NC(=O)[C@H](CCCNC(=O)CON=CCCCC=NOCC(=O)NCCC[C@@H]2NC(=O)[C@@H](Cc3ccc(O)cc3)NC(=O)CNC(=O)[C@H](Cc3ccc4ccccc4c3)NC(=O)[C@H](CCCNC(=N)N)NC2=O)NC(=O)[C@@H](Cc2ccc(O)cc2)NC(=O)CNC(=O)[C@H](Cc2ccc3ccccc3c2)NC1=O [Code A22, glutaric aldehyde-(cyclo[D-Tyr-Orn(amineoxyacetyl)-Arg-2-Nal-Gly])2] | 58 ± 4.2 nM |
| CN1C(=O)[C@@H](Cc2ccc(O)cc2)NC(=O)CNC(=O)[C@H](Cc2ccc3ccccc3c2)NC(=O)[C@H](CCCNC(=N)N)NC(=O)[C@H]1CCCNC(=O)CCCCCCC(=O)NCCC[C@@H]1C(=O)N[C@@H](CCCNC(=N)N)C(=O)N[C@@H](Cc2ccc3ccccc3c2)C(=O)NCC(=O)N[C@H](Cc2ccc(O)cc2)C(=O)N1C [NMe-D-Orn n = 6] (I: cyclo([2Nal]G[dY][dNMeOrn]R) / II: cyclo([2Nal]G[dY][dNMeOrn]R); linker I:4-II:4 via Suberoyl) | 2.51 ± 0.7 nM |
| CN1C(=O)[C@@H](Cc2ccc(O)cc2)NC(=O)CNC(=O)[C@H](Cc2ccc3ccccc3c2)NC(=O)[C@H](CCCN=C(N)N)NC(=O)[C@H]1CCCNC(=O)CCCCC(=O)NCCC[C@@H]1C(=O)N[C@@H](CCCN=C(N)N)C(=O)N[C@@H](Cc2ccc3ccccc3c2)C(=O)NCC(=O)N[C@H](Cc2ccc(O)cc2)C(=O)N1C [NMe-D-Orn n = 4] (I: cyclo([2Nal]G[dY][dNMeOrn]R) / II: cyclo([2Nal]G[dY][dNMeOrn]R); linker I:4-II:4 via Adipoyl) | 4.42 nM |
| CN1C(=O)[C@@H](Cc2ccc(O)cc2)NC(=O)CNC(=O)[C@H](Cc2ccc3ccccc3c2)NC(=O)[C@H](CCCNC(=N)N)NC(=O)[C@H]1CCCNC(=O)CCCC(=O)NCCC[C@@H]1C(=O)N[C@@H](CCCNC(=N)N)C(=O)N[C@@H](Cc2ccc3ccccc3c2)C(=O)NCC(=O)N[C@H](Cc2ccc(O)cc2)C(=O)N1C [NMe-D-Orn n = 3] (I: cyclo([2Nal]G[dY][dNMeOrn]R) / II: cyclo([2Nal]G[dY][dNMeOrn]R); linker I:4-II:4 via Glutaryl) | 4.28 ± 2.3 nM |
| CN1C(=O)[C@@H](Cc2ccc(O)cc2)NC(=O)CNC(=O)[C@H](Cc2ccc3ccccc3c2)NC(=O)[C@H](CCCN=C(N)N)NC(=O)[C@H]1CCCNC(=O)CCCCCCCCC(=O)NCCC[C@@H]1C(=O)N[C@@H](CCCN=C(N)N)C(=O)N[C@@H](Cc2ccc3ccccc3c2)C(=O)NCC(=O)N[C@H](Cc2ccc(O)cc2)C(=O)N1C [NMe-D-Orn n = 8] (I: cyclo([2Nal]G[dY][dNMeOrn]R) / II: cyclo([2Nal]G[dY][dNMeOrn]R); linker I:4-II:4 via Sebacoyl) | 2.12 ± 0.9 nM |
